Source: patent publication US11459323B2, “Monocyclic β-lactam compound for treating bacterial infection” (MEDSHINE DISCOVERY INC., priority 2018, dated 2022)

Legend:
Test in all cases: MIC on clinically isolated bacteria
Format in all cases: cell-based
[1] = test system: Acinetobacter baumannii C181; conditions: Acinetobacter baumannii, C181, read-out: Minimum Inhibitory Concentration (MIC)
Excerpt: (§1) Twenty-five strains of clinically isolated Acinetobacter baumannii and twenty-seven strains of Pseudomonas aeruginosa were respectively selected and used to determine the minimum inhibitory concentration (MIC) of the compounds by micro-liquid dilution method according to the Institute of Clinical and Laboratory Standard (CLSI) requirements.

[2] = test system: Acinetobacter baumannii C241; conditions: Acinetobacter baumannii, C241, read-out: Minimum Inhibitory Concentration (MIC)
Excerpt: as §1

[3] = test system: Acinetobacter baumannii C279; conditions: Acinetobacter baumannii, C279, read-out: Minimum Inhibitory Concentration (MIC)
Excerpt: as §1

[4] = test system: Acinetobacter baumannii C281; conditions: Acinetobacter baumannii, C281, read-out: Minimum Inhibitory Concentration (MIC)
Excerpt: as §1

[5] = test system: Acinetobacter baumannii C283; conditions: Acinetobacter baumannii, C283, read-out: Minimum Inhibitory Concentration (MIC)
Excerpt: as §1

[6] = test system: Acinetobacter baumannii C312; conditions: Acinetobacter baumannii, C312, read-out: Minimum Inhibitory Concentration (MIC)
Excerpt: as §1

[7] = test system: Acinetobacter baumannii C313; conditions: Acinetobacter baumannii, C313, read-out: Minimum Inhibitory Concentration (MIC)
Excerpt: as §1

[8] = test system: Acinetobacter baumannii C315; conditions: Acinetobacter baumannii, C315, read-out: Minimum Inhibitory Concentration (MIC)
Excerpt: as §1

[9] = test system: Acinetobacter baumannii C328; conditions: Acinetobacter baumannii, C328, read-out: Minimum Inhibitory Concentration (MIC)
Excerpt: as §1

[10] = test system: Acinetobacter baumannii C330; conditions: Acinetobacter baumannii, C330, read-out: Minimum Inhibitory Concentration (MIC)
Excerpt: as §1

[11] = test system: Acinetobacter baumannii C333; conditions: Acinetobacter baumannii, C333, read-out: Minimum Inhibitory Concentration (MIC)
Excerpt: as §1

[12] = test system: Acinetobacter baumannii C357; conditions: Acinetobacter baumannii, C357, read-out: Minimum Inhibitory Concentration (MIC)
Excerpt: as §1

[13] = test system: Acinetobacter baumannii C361; conditions: Acinetobacter baumannii, C361, read-out: Minimum Inhibitory Concentration (MIC)
Excerpt: as §1

[14] = test system: Acinetobacter baumannii C390; conditions: Acinetobacter baumannii, C390, read-out: Minimum Inhibitory Concentration (MIC)
Excerpt: as §1

[15] = test system: Acinetobacter baumannii C394; conditions: Acinetobacter baumannii, C394, read-out: Minimum Inhibitory Concentration (MIC)
Excerpt: as §1

[16] = test system: Acinetobacter baumannii C395; conditions: Acinetobacter baumannii, C395, read-out: Minimum Inhibitory Concentration (MIC)
Excerpt: as §1

[17] = test system: Acinetobacter baumannii C402; conditions: Acinetobacter baumannii, C402, read-out: Minimum Inhibitory Concentration (MIC)
Excerpt: as §1

[18] = test system: Acinetobacter baumannii C403; conditions: Acinetobacter baumannii, C403, read-out: Minimum Inhibitory Concentration (MIC)
Excerpt: as §1

[19] = test system: Acinetobacter baumannii C408; conditions: Acinetobacter baumannii, C408, read-out: Minimum Inhibitory Concentration (MIC)
Excerpt: as §1

[20] = test system: Acinetobacter baumannii C427; conditions: Acinetobacter baumannii, C427, read-out: Minimum Inhibitory Concentration (MIC)
Excerpt: as §1

Aeruginosa ATCC27853 = conditions: Pseudomonas aeruginosa, ATCC27853
Excerpt: as §1

[21] = test system: Pseudomonas aeruginosa C745
Excerpt: as §1

[22] = test system: Pseudomonas aeruginosa C754
Excerpt: as §1

[23] = test system: Pseudomonas aeruginosa C755
Excerpt: as §1

[24] = test system: Pseudomonas aeruginosa C762
Excerpt: as §1

[25] = test system: Pseudomonas aeruginosa C763
Excerpt: as §1

[26] = test system: Pseudomonas aeruginosa M1
Excerpt: as §1

[27] = test system: Pseudomonas aeruginosa M4
Excerpt: as §1

[28] = test system: Pseudomonas aeruginosa W13
Excerpt: as §1

[29] = test system: Pseudomonas aeruginosa W1
Excerpt: as §1

[30] = test system: Pseudomonas aeruginosa W20
Excerpt: as §1

[31] = test system: Pseudomonas aeruginosa W23
Excerpt: as §1

[32] = test system: Pseudomonas aeruginosa W24
Excerpt: as §1

[33] = test system: Pseudomonas aeruginosa W27
Excerpt: as §1

[34] = test system: Pseudomonas aeruginosa W29
Excerpt: as §1

[35] = test system: Pseudomonas aeruginosa W35
Excerpt: as §1

[36] = test system: Pseudomonas aeruginosa W42
Excerpt: as §1

[37] = test system: Pseudomonas aeruginosa W4
Excerpt: as §1

[38] = test system: Pseudomonas aeruginosa W6
Excerpt: as §1

[39] = test system: Pseudomonas aeruginosa W9
Excerpt: as §1

Measured: MIC

CN(C)c1cc(NC(=O)CNC(C)(C)C)c(O)c2c1C[C@H]1C[C@H]3[C@H](N(C)C)C(O)=C(C(N)=O)C(=O)[C@@]3(O)C(O)=C1C2=O [Tigecycline, reference compound]
16 µg/mL: [26] | [29] | [30] | [31] | [32] | [33] | [34] | [38] | [39]
8 µg/mL: Aeruginosa ATCC27853 | [22] | [28] | [35] | [36] | [37]
4 µg/mL: [23] | [27]
> 16 µg/mL: [21] | [24] | [25]
2 µg/mL: [2]
1 µg/mL: all other assays above
